From patent US6355238B1, “Specific immune system modulation” (Yale University, priority 1992, dated 2002)

Assays:
[1] = compared with 8-MOP; Calzavara-Pinton et al. 1992; cited from earlier work
Lysozyme = Lysozyme (Gallus gallus, UniProt P00698); experiment: Covalent photobinding of 8-MOP to lysozyme (liquid scintillation, [3H]8-MOP); assay type: binding; conditions: lysozyme 0.4 mg/ml, 8-MOP 0.04 mg/ml
Method: Lysozyme (0.4 mg/ml) and 8-MOP (0.04 mg/ml) including trace amounts of [3H]8-MOP) were exposed to UVA (3.6 mW/cm^2; filtered with window glass to remove UVB). Aliquots were taken after 15, 30, 60 and 120 min. UVA exposure and were dialyzed exhaustively using distilled water in a microdialyzer (BRL, Bethesda, Md.). An aliquot of each sample was analyzed by liquid scintillation analysis to determine the extent of covalent photobinding of 8-MOP.

Chick ovalbumin = target: T1, Chick ovalbumin (Gallus gallus, UniProt P01012); experiment: Covalent photobinding of 8-MOP to ovalbumin with visible light; assay type: binding
T1 sequence (P01012 1-386): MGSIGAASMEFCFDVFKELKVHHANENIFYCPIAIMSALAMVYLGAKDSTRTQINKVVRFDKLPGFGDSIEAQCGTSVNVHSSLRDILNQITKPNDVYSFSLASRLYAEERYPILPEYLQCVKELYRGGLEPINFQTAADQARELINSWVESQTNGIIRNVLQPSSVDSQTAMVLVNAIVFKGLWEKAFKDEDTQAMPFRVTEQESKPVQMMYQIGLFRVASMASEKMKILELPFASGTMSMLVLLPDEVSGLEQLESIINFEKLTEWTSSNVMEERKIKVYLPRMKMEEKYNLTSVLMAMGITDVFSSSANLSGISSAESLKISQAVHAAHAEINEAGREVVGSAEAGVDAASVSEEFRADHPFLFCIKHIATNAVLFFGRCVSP
Method: Approximately 0.1% photoadducts were observed per amino acid.
Ovalbumin (0.4 mg/ml) and 8-MOP (0.04 mg/ml) containing trace amounts of [^3H]8-MOP) were exposed to visible radiation (419 nm) for 60 min. and thereafter, dialyzed exhaustively using distilled water in a microdialyzer (BRL, Bethesda, Md.). An aliquot of the sample was analyzed by liquid scintillation analysis.

Sequence of Lysozyme (P00698 19-147): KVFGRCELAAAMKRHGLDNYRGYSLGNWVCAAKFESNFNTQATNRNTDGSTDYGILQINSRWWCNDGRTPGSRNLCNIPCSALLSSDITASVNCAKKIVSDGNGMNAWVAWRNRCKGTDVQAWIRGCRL

| SMILES | efficacy in the treatment of psoriasis [1] | moles 8-MOP/moles Lysozyme (Lysozyme; 0 min UVA exposure) | moles 8-MOP/moles Lysozyme (Lysozyme; 30 min UVA exposure (3.6 mW/cm^2)) | moles 8-MOP/moles Lysozyme (Lysozyme; 60 min UVA exposure (3.6 mW/cm^2)) | moles 8-MOP/moles Lysozyme (Lysozyme; 120 min UVA exposure (3.6 mW/cm^2)) | photoadducts per amino acid (Chick ovalbumin; visible light (419 nm)) | extent of covalent photobinding of 8-MOP to ovalbumin (Chick ovalbumin; visible radiation (419 nm) 60 min, ovalbumin 0.4 mg/ml, 8-MOP 0.04 mg/ml) |
| --- | --- | --- | --- | --- | --- | --- | --- |
| COc1c2ccoc2cc2oc(=O)ccc12 [5-MOP, 5-methoxypsoralen] | not as efficacious as 8-MOP |  |  |  |  |  |  |
| COc1c2occc2cc2ccc(=O)oc12 [8-MOP, 8-methoxypsoralen] |  | 0 moles 8-MOP/moles Lysozyme | 0.90 moles 8-MOP/moles Lysozyme | 2.04 moles 8-MOP/moles Lysozyme | 1.86 moles 8-MOP/moles Lysozyme | Approximately 0.1% | approximately 0.039 8-MOP molecules/ovalbumin molecule |
